Among the test systems are HCT-116; RPMI-8226; U-251; NCI-H460; T47D; NCI-H226; MCF7; IGROV-1; KM12; SK-OV-3; TK-10; UACC-62; COLO 205; MDA-MB-231.
Common to all, as to test: inhibition of tumour cell growth, NCI panel, 48 h

Molecules are shown by their SMILES.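 96-well plates; 48 h exposure; 5 concentrations. Endpoints by linear interpolation between flanking doses. Not reached: highest tested concentration assigned. At the GI50, growth is halved.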 Active and inactive are the calls of the source. Cut-off read from the data, not from the text of the source: active = GI50 up to about 1.1 µM and inactive = higher. Bounds are passed on as bounds.

Regarding `CCOP1(=O)C=C(Sc2ccc([N+](=O)[O-])cc2[N+](=O)[O-])C(C)(C)O1` (stereo not given), the GI50 is 5.42 µM (inactive) in the assay with HCT-116; 5.25 µM (inactive) in the assay on RPMI-8226; 14.9 µM (inactive) in the assay with U-251; 21 µM (inactive) with NCI-H460; 14.6 µM (inactive) in the assay on T47D; 25.5 µM (inactive) with NCI-H226. Besides, the GI50 in the assay with MCF7 was 3.99 µM (inactive); with IGROV-1, 16.5 µM (inactive); in the assay with KM12, 16.5 µM (inactive); in the assay on SK-OV-3, 27.2 µM (inactive); in the assay with TK-10, 17.1 µM (inactive); in the assay with UACC-62 it was 11.5 µM (inactive). Moreover, the GI50 with COLO 205 was 10.5 µM (inactive).
For the compound `COC(=O)c1sc2nc(Nc3ccccc3)/c(=N\c3ccccc3)sc2c1C`, the GI50 is 51.8 µM (inactive) with HCT-116; > 100 µM (inactive) in the assay on RPMI-8226; 48.6 µM (inactive) with U-251; > 100 µM (inactive) in the assay on MDA-MB-231; 45.4 µM (inactive) in the assay on NCI-H460; > 100 µM (inactive) in the assay on T47D. Further, the GI50 in the assay with NCI-H226 was > 100 µM (inactive); in the assay on IGROV-1, 45.4 µM (inactive); in the assay on KM12, > 100 µM (inactive); in the assay with SK-OV-3 it was 32.8 µM (inactive); in the assay with TK-10 it was 30.5 µM (inactive); in the assay with UACC-62 it was 35.6 µM (inactive). Besides, in the assay with COLO 205, the GI50 is > 100 µM (inactive).
For `CC1(C)CCOC(=O)C(Cl)CC1Cl` (stereo not given), the GI50 in the assay on HCT-116, in the assay on U-251, with MDA-MB-231, with NCI-H460, in the assay with T47D and in the assay with NCI-H226 was > 100 µM (inactive) each time. The GI50 with MCF7, in the assay on IGROV-1, in the assay on KM12, in the assay with SK-OV-3, with TK-10 and in the assay on UACC-62 was > 100 µM (inactive) each time. The GI50 with COLO 205 was > 100 µM (inactive).
Regarding `CC(=O)O[C@H]1[C@@H](OC2CCCC2(c2ccccc2)c2ccccc2)O[N+]([O-])=C[C@@]12COCc1cc3c(cc12)OCO3` (stereo not given in full), the GI50 was > 21.2 µM (inactive) with HCT-116; 7.48 µM (inactive) with U-251; 6.12 µM (inactive) in the assay on MDA-MB-231; 7.06 µM (inactive) in the assay with NCI-H460; 4.23 µM (inactive) in the assay with T47D; 4.79 µM (inactive) in the assay on NCI-H226. In addition, the GI50 was 6.38 µM (inactive) in the assay on MCF7; 3.54 µM (inactive) in the assay on IGROV-1; 4.14 µM (inactive) in the assay on KM12; 30.1 µM (inactive) in the assay with SK-OV-3; 7.85 µM (inactive) in the assay with TK-10; 8.39 µM (inactive) in the assay on UACC-62. In the assay on COLO 205, the GI50 is > 32.4 µM (inactive).
In the case of `C[N+]12C=CC=C1C(N1CCCC1)c1scc(-c3ccccc3)c12` (stereo not given), the GI50 in the assay with HCT-116 was 32.3 µM (inactive); in the assay with RPMI-8226, 5.92 µM (inactive); with U-251, 5.92 µM (inactive); in the assay on MDA-MB-231 it was 37.8 µM (inactive); in the assay with T47D, 4.25 µM (inactive); in the assay on NCI-H226 it was 1.6 µM (inactive). For the same compound, the GI50 in the assay on MCF7 is 14.8 µM (inactive); in the assay with IGROV-1, 4.99 µM (inactive); in the assay on KM12, 8.55 µM (inactive); in the assay with SK-OV-3 it was > 100 µM (inactive); in the assay on UACC-62, 21 µM (inactive); in the assay on COLO 205 it was 15.1 µM (inactive).
Take `CC1C(c2ccccc2)OP(=O)(OC(C#N)c2ccccc2)N1C` (stereo not given): the GI50 in the assay on HCT-116 was > 100 µM (inactive); in the assay with RPMI-8226, 33.5 µM (inactive); with U-251 it was 67.9 µM (inactive); in the assay on MDA-MB-231, > 100 µM (inactive); in the assay with NCI-H460 it was > 100 µM (inactive); with T47D it was 40.8 µM (inactive). The GI50 in the assay with MCF7 was 37.6 µM (inactive); in the assay with IGROV-1 it was > 100 µM (inactive); with KM12, > 100 µM (inactive); in the assay with SK-OV-3, > 100 µM (inactive); with TK-10 it was > 100 µM (inactive); in the assay on UACC-62, > 100 µM (inactive). Besides, in the assay with COLO 205, the GI50 was > 100 µM (inactive).
Turning to `O=C1CNC(=O)/C(=C/c2c[nH]c3ccccc23)N1`, the GI50 in the assay on HCT-116, in the assay on RPMI-8226, in the assay with NCI-H460, in the assay with T47D, with NCI-H226 and in the assay on MCF7 was > 100 µM (inactive) each time. For the same compound, the GI50 in the assay with IGROV-1, in the assay with KM12, in the assay with SK-OV-3, in the assay on TK-10 and with UACC-62 was > 100 µM (inactive) throughout.
Take `CC1(C)C=Cc2c(cc(O)c3c(=O)c4cc(Cl)ccc4[nH]c23)O1`: the GI50 with HCT-116 is 2.99 µM (inactive); with RPMI-8226, 2.29 µM (inactive); with U-251, 2.74 µM (inactive); in the assay with MDA-MB-231, 3.33 µM (inactive); with NCI-H460, 1.98 µM (inactive); with T47D, 3.69 µM (inactive). Further, the GI50 in the assay with MCF7 was 2.88 µM (inactive); in the assay on IGROV-1, 5.31 µM (inactive); in the assay on KM12 it was 2.2 µM (inactive); in the assay with SK-OV-3, 2.72 µM (inactive); in the assay with TK-10 it was 4.5 µM (inactive); with UACC-62, 2.58 µM (inactive). The GI50 in the assay with COLO 205 was 4.43 µM (inactive).
Consider `Cc1cccc2nc3cccc(C(=O)NCCC[N+](C)(CCCNC(=O)c4cccc5nc6cccc(C)c6nc45)Cc4ccc([N+](=O)[O-])n4C)c3nc12`, for which the GI50 is 0.0615 µM (active) in the assay with HCT-116; 1.33 µM (inactive) with RPMI-8226; 0.456 µM (active) with U-251; 17.5 µM (inactive) with MDA-MB-231; 0.405 µM (active) with NCI-H460; 14.9 µM (inactive) with T47D. Further, the GI50 in the assay with MCF7 is 0.552 µM (active); in the assay on IGROV-1, 0.703 µM (active); in the assay on KM12, 2.26 µM (inactive); in the assay with SK-OV-3, 41.5 µM (inactive); in the assay on TK-10, > 100 µM (inactive); with UACC-62, 5.4 µM (inactive). Further, the GI50 in the assay on COLO 205 was 3.58 µM (inactive).
With `COC(=O)CN1C(=O)C2(C(=O)OC)OC1(c1ccc([N+](=O)[O-])cc1)C1C(=O)N(c3ccccc3)C(=O)C12` (stereo not given), the GI50 in the assay on HCT-116, in the assay on U-251, in the assay with MDA-MB-231, in the assay with T47D, in the assay with NCI-H226 and with IGROV-1 was > 100 µM (inactive) throughout. Also, the GI50 in the assay with KM12, in the assay with SK-OV-3, with TK-10, in the assay on UACC-62 and in the assay with COLO 205 was > 100 µM (inactive) in each case.
Consider `COc1ccc(/N=C(/C[S+]([O-])c2ccc(C)cc2)C(F)(F)F)cc1` (stereo not given), for which the GI50 in the assay on HCT-116, with U-251, in the assay with MDA-MB-231, in the assay on NCI-H460, in the assay with T47D and in the assay on NCI-H226 was > 100 µM (inactive) in each case. The GI50 with MCF7 was > 100 µM (inactive); in the assay with IGROV-1 it was > 100 µM (inactive); in the assay with KM12, 27.9 µM (inactive); in the assay with SK-OV-3, > 100 µM (inactive); with TK-10, > 100 µM (inactive); with UACC-62 it was 10.6 µM (inactive). Moreover, in the assay on COLO 205, the GI50 was > 100 µM (inactive).
Regarding `CCOC(=O)/C(=C\NC(C)(C)C)c1nc2ccccc2[nH]1`, the GI50 with HCT-116 was 29.5 µM (inactive); in the assay on RPMI-8226 it was 17.2 µM (inactive); in the assay with NCI-H460, 17.7 µM (inactive); in the assay with NCI-H226, 22.9 µM (inactive); with MCF7, 18.6 µM (inactive); with IGROV-1, 22 µM (inactive). Further, the GI50 with KM12 was 19.9 µM (inactive); in the assay on SK-OV-3, 30.1 µM (inactive); in the assay with TK-10 it was 14 µM (inactive); in the assay with UACC-62 it was 16.3 µM (inactive); with COLO 205 it was 16 µM (inactive).
For the compound `C=CCN1CCN([C@H](c2ccc(C(=O)N(CC)CC)cc2)c2cccc(OC)c2)CC1`, the GI50 with HCT-116, in the assay on RPMI-8226, with U-251, with MDA-MB-231, in the assay with T47D and in the assay on NCI-H226 was > 25 µM (inactive) each time. Besides, the GI50 in the assay with MCF7, with IGROV-1, with KM12, in the assay with SK-OV-3, in the assay on UACC-62 and in the assay on COLO 205 was > 25 µM (inactive) each time.
For `O=C1c2ccc3c4ccc5c6c(ccc(c7ccc(c2c37)C(=O)N1CCN1CCCCC1)c64)C(=O)N(CCN1CCCCC1)C5=O`, the GI50 in the assay on HCT-116, in the assay with RPMI-8226, with U-251, in the assay with NCI-H460, with T47D and with NCI-H226 was > 100 µM (inactive) throughout. The GI50 in the assay on MCF7, in the assay on IGROV-1, in the assay on KM12, with SK-OV-3, with TK-10 and with UACC-62 was > 100 µM (inactive) each time. Besides, the GI50 with COLO 205 was > 100 µM (inactive).
Turning to `c1cc2c(cc1NC1=NCCO1)CCC2`, the GI50 in the assay on HCT-116 was 4.49 µM (inactive); with RPMI-8226, > 10 µM (inactive); with T47D it was > 10 µM (inactive); in the assay with MCF7 it was > 10 µM (inactive); in the assay on IGROV-1 it was > 10 µM (inactive); in the assay on KM12, > 10 µM (inactive). In addition, the GI50 in the assay with SK-OV-3, in the assay with TK-10, with UACC-62 and in the assay on COLO 205 was > 10 µM (inactive) each time.
In the case of `CC(=O)Oc1ccccc1C(=O)O` [ASPIRIN], the GI50 in the assay on HCT-116, in the assay with RPMI-8226, with U-251, in the assay with T47D, in the assay with NCI-H226 and in the assay on MCF7 was > 100 µM (inactive) each time. Moreover, the GI50 with KM12, in the assay on SK-OV-3, with TK-10, in the assay on UACC-62 and in the assay with COLO 205 was > 100 µM (inactive) each time.

For the origin of these results see ChEMBL document CHEMBL1201862, “PubChem BioAssay data set” (2004).
